Results: patent US20230146455A1, “TREATMENT OF INFLAMMATORY DISEASES WITH PEPTIDES AND PHARMACEUTICAL COMPOSITIONS” (Yuyu Pharma, Inc., priority 2020, published 2023)
Where “and” joins values, the source holds several entries; their conditions need not be identical. Identical values can stand only once. Where a SMILES comes first, the peptide text is derived from it. [ ]: non-standard residue; d: D form. Hyp = O=C(O)[C@@H]1C[C@@H](O)CN1

What was measured:
IL-10 = experiment: Example 9 Luminex, LPS hPBMCs: IL-10; type: cell-based, human; conditions: IL-10
Method: (§1) Treatment Human PBMCs were pretreated with YY-101, YDE-011 and YDE-043 or reference compound; Xiidra® at various concentration (ranging from 1 nM to 100 uM) for 2 h before stimulation. An equal volume of 0.5% DMSO was used as a vehicle control. Then, the cells were treated with LPS at 5 ug/ml. The supernatants from treated cells were harvested at 24 h and placed in a 96 well for Luminex cytokine & chemokine profiling using a Luminex 200 multiplex assay (Luminex; R&D system, USA).
(§2) The main study arm with triplicate wells per group in a 24-well plate: • 1. Blank • 2. PBMC: 0.5% DMSO • 3. PBMC+LPS (5 ug/ml) • 4. PBMC+YY-101 100 uM • 5. PBMC+YY-101 10 uM • 6. PBMC+YY-101 1 uM • 7. PBMC+YY-101 0.1 uM • 8. PBMC+YY-101 0.01 uM • 9. PBMC+LPS (5 ug/ml)+Xiidra®100 uM • 10. PBMC+LPS (5 ug/ml)+Xiidra® 10 uM • 11. PBMC+LPS (5 ug/ml)+Xiidra® 1 uM • 12. PBMC+LPS (5 ug/ml)+Xiidra®0.1 uM • 13. PBMC+LPS (5 ug/ml)+Xiidra®0.01 uM • 14. PBMC+LPS (5 ug/ml)+Xiidra®0.001 uM • 15. PBMC+LPS (5 ug/ml)+YY-101 100 uM • 16. PBMC+LPS (5 ug/ml)+YY-101 10 uM • 17. PBMC+LPS (5 ug/ml)+YY-101 1 uM • 18. PBMC+LPS (5 ug/ml)+YY-101 0.1 uM • 19. PBMC+LPS (5 ug/ml)+YY-101 0.01 uM • 20. PBMC+LPS (5 ug/ml)+YY-101 0.001 uM • 21. PBMC+LPS (5 ug/ml)+YDE-011 100 uM • 22. PBMC+LPS (5 ug/ml)+YDE-011 10 uM • 23. PBMC+LPS (5 ug/ml)+YDE-011 1 uM • 24. PBMC+LPS (5 ug/ml)+YDE-011 0.1 uM • 25. PBMC+LPS (5 ug/ml)+YDE-011 0.01 uM • 26. PBMC+LPS (5 ug/ml)+YDE-011 0.001 uM • 27. PBMC+LPS (5 ug/ml)+YDE-043 100 uM • 28. PBMC+LPS (5 ug/ml)+YDE-043 10 uM • 29. PBMC+LPS (5 ug/ml)+YDE-043 1 uM • 30. PBMC+LPS (5 ug/ml)+YDE-043 0.1 uM • 31. PBMC+LPS (5 ug/ml)+YDE-043 0.01 uM • 32. PBMC+LPS (5 ug/ml)+YDE-043 0.001 uM
(§3) Multiplex assay was used to measure 30 cytokines and chemokines. The 1:2, 1:10 and 1:200 diluted cell supernatant and serial dilution of the standard were dispensed into a 96 well plate at 50 ul/well. Then, the pre-mixed cocktail of antibody-coated magnetic beads was dispensed at 50 ul/well and incubated at room temperature for 2 h in a horizontal orbital microplate shaker at 800±500 rpm. The beads were washed using a magnetic device to prevent loss. The biotin-antibody was dispensed in 50 ul of each well and incubated at room temperature for 1 h in a shaker at 800±500 rpm. After washing, streptavidin-PE was added at 50 ul/well and incubated at room temperature for 30 min in a shaker under the same conditions. Finally, after washing, wash buffer (100 ul/well) was added to the plate and incubated in a shaker for 2 min. The Luminex™ 200 setting were set according to the manufacturer's protocol. The data was calculated with a standard five-parameter logistic nonlinear regression analysis of the data (xPonent software 4.2, USA). The levels of cytokine/chemokine are normalized to the live cell counts (1×10^5 cells/mL) and presented as concentrations per mL (pg/mL or ng/mL).

CCL5/RANTES = experiment: Example 9 Luminex, LPS hPBMCs: CCL5/RANTES; type: cell-based, human; conditions: PBMC + LPS(5 ug/ml)
Method: as §1, §2, §3

[1] = PBMC + LPS(5 ug/ml) + test article 0.001 uM, Mean
[2] = PBMC + LPS(5 ug/ml) + test article 0.001 uM, single replicates
[3] = PBMC + LPS(5 ug/ml) + test article 0.01 uM, Mean
[4] = PBMC + LPS(5 ug/ml) + test article 0.01 uM, single replicates
[5] = PBMC + LPS(5 ug/ml) + test article 0.1 uM, Mean
[6] = PBMC + LPS(5 ug/ml) + test article 0.1 uM, single replicates
[7] = PBMC + LPS(5 ug/ml) + test article 1 uM, Mean
[8] = PBMC + LPS(5 ug/ml) + test article 1 uM, single replicates
[9] = PBMC + LPS(5 ug/ml) + test article 10 uM, Mean
[10] = PBMC + LPS(5 ug/ml) + test article 10 uM, single replicates
[11] = PBMC + LPS(5 ug/ml) + test article 100 uM, Mean
[12] = PBMC + LPS(5 ug/ml) + test article 100 uM, single replicates
[13] = test article 0.001 uM, single replicates (1st, 2nd, 3rd)
[14] = test article 0.01 uM, single replicates (1st, 2nd, 3rd)
[15] = test article 0.1 uM, single replicates (1st, 2nd, 3rd)
[16] = test article 1 uM, single replicates (1st, 2nd, 3rd)
[17] = test article 10 uM, single replicates (1st, 2nd, 3rd)
[18] = test article 100 uM, single replicates (1st, 2nd, 3rd)

Which results are given for `CC(C)C[C@H](NC(=O)CNC(=O)[C@H](CC(C)C)NC(=O)[C@H](CCC(N)=O)NC(=O)CNC(=O)[C@@H]1C[C@@H](O)CN1)C(=O)N[C@@H](C)C(=O)NCC(=O)N1CCC[C@H]1C(=O)N[C@@H](CCCCN)C(=O)O` [YDE-011] (H-[Hyp]GQLGLAGPK-OH)?
Concentration (IL-10; [1]): 303.8 pg/mL; conc/live cell (pg/10^5) (IL-10; [1]): 57.2 pg/10^5; Concentration (IL-10; [2]): 291.0 pg/mL and 314.2 pg/mL and 306.3 pg/mL; conc/live cell (pg/10^5) (IL-10; [2]): 64.7 pg/10^5 and 54.2 pg/10^5 and 52.8 pg/10^5; Concentration (IL-10; [3]): 318.0 pg/mL; conc/live cell (pg/10^5) (IL-10; [3]): 54.4 pg/10^5; Concentration (IL-10; [4]): 333.6 pg/mL and 325.0 pg/mL and 295.4 pg/mL; conc/live cell (pg/10^5) (IL-10; [4]): 52.9 pg/10^5 and 52.4 pg/10^5 and 57.9 pg/10^5; Concentration (IL-10; [5]): 308.9 pg/mL; conc/live cell (pg/10^5) (IL-10; [5]): 54.4 pg/10^5; Concentration (IL-10; [6]): 299.0 pg/mL and 317.8 pg/mL and 309.9 pg/mL; conc/live cell (pg/10^5) (IL-10; [6]): 45.3 pg/10^5 and 63.6 pg/10^5 and 54.4 pg/10^5; Concentration (IL-10; [7]): 314.7 pg/mL; conc/live cell (pg/10^5) (IL-10; [7]): 62.8 pg/10^5; Concentration (IL-10; [8]): 314.2 pg/mL and 319.3 pg/mL and 310.6 pg/mL; conc/live cell (pg/10^5) (IL-10; [8]): 57.1 pg/10^5 and 66.5 pg/10^5 and 64.7 pg/10^5; Concentration (IL-10; [9]): 300.7 pg/mL; conc/live cell (pg/10^5) (IL-10; [9]): 57.3 pg/10^5; Concentration (IL-10; [10]): 299.0 pg/mL and 295.4 pg/mL and 307.7 pg/mL; conc/live cell (pg/10^5) (IL-10; [10]): 55.4 pg/10^5 and 50.9 pg/10^5 and 65.5 pg/10^5; Concentration (IL-10; [11]): 111.4 pg/mL; conc/live cell (pg/10^5) (IL-10; [11]): 18.4 pg/10^5; Concentration (IL-10; [12]): 99.4 pg/mL and 113.9 pg/mL and 121.1 pg/mL; conc/live cell (pg/10^5) (IL-10; [12]): 16.3 pg/10^5 and 18.7 pg/10^5 and 20.2 pg/10^5; Concentration (CCL5/RANTES) (CCL5/RANTES; test article 0.001 uM, Mean): 209.7 pg/mL; MFI (Bead name: CCL5/RANTES) (CCL5/RANTES; test article 0.001 uM, Mean): 477.2; conc/live cell (CCL5/RANTES) (CCL5/RANTES; test article 0.001 uM, Mean): 39.5 pg/10^5; Concentration (CCL5/RANTES) (CCL5/RANTES; [13]): 202.5 pg/ml (2×) and 224.1 pg/ml; MFI (Bead name: CCL5/RANTES) (CCL5/RANTES; [13]): 455.5 (2×) and 520.5; conc/live cell (CCL5/RANTES) (CCL5/RANTES; [13]): 45.0 pg/10^5 and 34.9 pg/10^5 and 38.6 pg/10^5; Concentration (CCL5/RANTES) (CCL5/RANTES; test article 0.01 uM, Mean): 215.3 pg/mL; MFI (Bead name: CCL5/RANTES) (CCL5/RANTES; test article 0.01 uM, Mean): 494.0; conc/live cell (CCL5/RANTES) (CCL5/RANTES; test article 0.01 uM, Mean): 37.1 pg/10^5; Concentration (CCL5/RANTES) (CCL5/RANTES; [14]): 216.5 pg/mL and 220.2 pg/mL and 209.4 pg/mL; MFI (Bead name: CCL5/RANTES) (CCL5/RANTES; [14]): 497.5 and 508.5 and 476.0; conc/live cell (CCL5/RANTES) (CCL5/RANTES; [14]): 34.9 pg/10^5 and 43.2 pg/10^5 and 33.2 pg/10^5; Concentration (CCL5/RANTES) (CCL5/RANTES; test article 0.1 uM, Mean): 207.0 pg/mL; MFI (Bead name: CCL5/RANTES) (CCL5/RANTES; test article 0.1 uM, Mean): 468.8; conc/live cell (CCL5/RANTES) (CCL5/RANTES; test article 0.1 uM, Mean): 36.3 pg/10^5; Concentration (CCL5/RANTES) (CCL5/RANTES; [15]): 206.7 pg/mL and 205.2 pg/mL and 209.0 pg/mL; MFI (Bead name: CCL5/RANTES) (CCL5/RANTES; [15]): 468.0 and 463.5 and 475.0; conc/live cell (CCL5/RANTES) (CCL5/RANTES; [15]): 31.3 pg/10^5 and 41.0 pg/10^5 and 36.7 pg/10^5; Concentration (CCL5/RANTES) (CCL5/RANTES; test article 1 uM, Mean): 199.8 pg/mL; MFI (Bead name: CCL5/RANTES) (CCL5/RANTES; test article 1 uM, Mean): 447.5; conc/live cell (CCL5/RANTES) (CCL5/RANTES; test article 1 uM, Mean): 39.8 pg/10^5; Concentration (CCL5/RANTES) (CCL5/RANTES; [16]): 205.5 pg/mL and 199.5 pg/mL and 194.4 pg/mL; MFI (Bead name: CCL5/RANTES) (CCL5/RANTES; [16]): 464.5 and 446.5 and 431.5; conc/live cell (CCL5/RANTES) (CCL5/RANTES; [16]): 37.4 pg/10^5 and 41.6 pg/10^5 and 40.5 pg/10^5; Concentration (CCL5/RANTES) (CCL5/RANTES; test article 10 uM, Mean): 204.9 pg/mL; MFI (Bead name: CCL5/RANTES) (CCL5/RANTES; test article 10 uM, Mean): 462.7; conc/live cell (CCL5/RANTES) (CCL5/RANTES; test article 10 uM, Mean): 38.9 pg/10^5; Concentration (CCL5/RANTES) (CCL5/RANTES; [17]): 214.7 pg/mL and 201.8 pg/mL and 198.1 pg/mL; MFI (Bead name: CCL5/RANTES) (CCL5/RANTES; [17]): 492.0 and 453.5 and 442.5; conc/live cell (CCL5/RANTES) (CCL5/RANTES; [17]): 39.8 pg/10^5 and 34.8 pg/10^5 and 42.1 pg/10^5; Concentration (CCL5/RANTES) (CCL5/RANTES; test article 100 uM, Mean): 161.8 pg/mL; MFI (Bead name: CCL5/RANTES) (CCL5/RANTES; test article 100 uM, Mean): 338.5; conc/live cell (CCL5/RANTES) (CCL5/RANTES; test article 100 uM, Mean): 26.7 pg/10^5; Concentration (CCL5/RANTES) (CCL5/RANTES; [18]): 170.4 pg/mL and 153.5 pg/mL and 161.5 pg/mL; MFI (Bead name: CCL5/RANTES) (CCL5/RANTES; [18]): 362.5 and 315.5 and 337.5; conc/live cell (CCL5/RANTES) (CCL5/RANTES; [18]): 27.9 pg/10^5 and 25.2 pg/10^5 and 26.9 pg/10^5
